# Legend:
# [1] = system: insulin receptor substrate (IRS-1); assay: IRS-1 Ser307 phosphorylation in differentiated 3T3L1 adipocytes (Western blot); format: cell-based, Murine; conditions: FIG. 1; for IRS-1 phosphorylation: agent alone compared to untreated, 3T3L1 adipocytes
# db/db mice = assay: Plasma insulin and lipids in db/db diabetic mouse model; format: in vivo
# Procedure: The animals were 40 Female db/db diabetic mice, 4 weeks old on a diet of normal rodent chow. The tests were conducted on five groups, with 7-8 mice per group.
# Group 1: Control CMC-tween, oral pipetting, 7 mice. Once a day for 28 days, 60 μl/mouse.
# Group 2: Niacin 2.5 g/kg (roughly), in drinking water for 28 days, 7 mice (10 mg/mL in water).
# Once a day for 28 days, 30 ul/mouse. (2 mg/mL in water)
# Group 5: Pioglitazone 30 mg/kg/day, oral pipetting, 7 mice. Once a day for 28 days, 60 μL/mouse. (15 mg/mL in Vehicle)
# Body weight was measured in all groups once a week. Food consumption was monitored once a week. All animals were fasted for 4 hours and plasma glucose levels were measured by OneTouch™ Ultra blood glucose meter. 35 animals were divided to 5 groups with 7 mice per group base on plasma glucose level. (Plasma glucose >120 mg/dL as a cut off for animal selection). 200 μL blood samples were collected from retro-orbital vein for plasma insulin level and lipids profile at baseline.
# Treatment started for all groups and lasted for 28 days. 4 hours fast blood samples were collected for plasma insulin level and lipids profile at 2 weeks and 4 weeks post dose. The Oral Glucose Tolerance Test (“OGTT”) was conducted at day 16 and day 30 post dose.
# THP-1 = assay: Niacin-induced PGD2 secretion in PMA-differentiated THP-1 macrophages; format: cell-based, human; conditions: FIG. 4
# [2] = db/db diabetic dyslipidemia model, FIG. 3
compound,measurement,setting,value
Cc1cnc(NC(=O)C2=C(O)c3ccccc3S(=O)(=O)N2C)s1 [meloxicam],effect on TNFα-induced IRS1 phosphorylation,"[1]; cells incubated with compound 2 hours prior to TNFα (20 ng/mL, 30 minutes)",inhibited
same,insulin levels,"db/db mice; db/db mice, 2 mg/kg/day for two weeks",reduced
same,plasma insulin,"db/db mice; db/db mice, treatment up to 28 days, FIG. 2",significantly reduced
same,effect on niacin's ability to increase HDL or decrease triglycerides,"db/db mice; meloxicam added to niacin, db/db mice, FIG. 3",did not affect
same,effect on niacin-induced increase in PGD2 levels,THP-1; compound 30 minutes prior to niacin,inhibited
"O=C(O)c1cccnc1 [niacin, pyridine-3-carboxylic acid]",IRS-1 phosphorylation,[1],significantly increased
same,HDL,db/db mice; [2],increase
same,triglycerides,db/db mice; [2],decrease
same,PGD2 levels in culture medium,THP-1; compared to controls,increased
TNFα,IRS-1 phosphorylation,[1],increased
